US20100305071A1, “METHODS FOR IMPROVING HEALING OF AN ORAL LESION USING A GLYCEROPHOSPHATE SALT” (PRELIEF INC., priority 2007, published 2010)
Entries after “also recorded” stand apart in the source; their conditions may differ.

Columns and labels:
[1] = test system: gum wounds after tooth extraction (oral lesion); experiment: CGP powder applied to the gum wound after tooth extraction (single human subject); assay type: in vivo
Experimental: A tooth was removed from a human, subject and normal packing was applied. There were five (5) stitches put in. Approximately 2 hours after the extraction, the human subject lightly rinsed their mouth and applied powdered CGP granulate of approximately 150 micron size granules directly to the gum and allowed the powder to become wet. Sufficient CGP powder was applied to form a light plaster coating over the wound. This was repeated approximately 6 hours later, before retiring that night, and again the next morning. In all cases, the CGP remained intact and in a cohesive mass on the gum for 15 minutes or more, after which time it slowly dissolved or dispersed and was safely swallowed. At no time during the post-extraction period was there swelling or pain. […] Rapid healing of the gum wounds was observed by a periodontist at the normal stitch-removal visit, 7 days subsequent to tooth removal. The gums had fully closed and were normal pink color in about one week. The periodontist commented that in their 15 years of practice, they had never seen this quality of healing at this speed.

[2] = test system: wounds post implant placement (oral lesion); experiment: Mucosal soft tissue healing in patients post implant placement applying dry CGP (PerioCell), small uncontrolled study; assay type: in vivo, human
Experimental: Methods according to embodiments of the present invention have been applied to multiple patients post implant placement. The age range of implant patients was 30-65 years. All patients had wound closure with 4-0 silk suture with interrupted knots unless otherwise noted. The patients were instructed to apply dry CGP that has less than 5% moisture in 150 micron granulate (PerioCell™, AkPharma Inc., Pleasantville, N.J. 08232) to the wounds three times daily, approximately 4 hours apart, for the first three days succeeding surgery. Mucosal soft tissue healing was observed and studied in these patients. Patient's compliance with the use instructions for CGP was reported by the patient at the post-operational visit (post-op) and was rated as Excellent, Good, Fair or Poor. In most, but not all cases, patients were reasonably compliant.

[3] = test system: rhino mucosal passage inflammation; experiment: Observation of low concentrations of CGP on rhino mucosal passage inflammation; assay type: in vivo; conditions: CGP between 1% and 2% by weight

calcium glycerophosphate [CGP]
healing of the gum wounds observed by periodontist at stitch-removal visit ([1]; 7 days subsequent to tooth removal): Rapid healing
swelling or pain during the post-extraction period ([1]; CGP applied about 2 h and 8 h after extraction and next morning): At no time
time until gums were normal pink color (self-observation via mirror) ([1]; after the extraction): 36 to 48 h
correlation between good and excellent compliance with use instructions for CGP and little to no tissue gapping and good wound healing ([2]; all implant patients): definite correlation
erythema at the wound margin at first post-op visit ([2]; one week post-op (2 weeks for patient 018), one patient per block): very little erythema or edema; also recorded: very little gingival erythema; also recorded: localized mild erythema; also recorded: little to no marginal erythema; also recorded: almost no erythema; also recorded: mild mesial inflammation; also recorded: Mild left side erythema and more moderate right side marginal erythema; also recorded: Mild to moderate marginal erythema
wound closure / tissue approximation at first post-op visit, noted by periodontist ([2]; one week post-op (2 weeks for patient 018), one patient per block, CGP three times daily for first three days, compliance varies by patient): excellent tissue approximation; also recorded: good tissue approximation; also recorded: beautiful wound approximation; also recorded: perfect wound margin approximation; also recorded: moderate tissue gaps in the left side; also recorded: wound margins came together very well with no gaps; also recorded: greater than 50% gapping of the margins; also recorded: great wound approximation with no gaps; also recorded: great wound approximation; also recorded: slight tissue gap at the mesial aspect; also recorded: no gaps seen; also recorded: excellent wound approximation and perfect closure; also recorded: great heal; also recorded: Wound closure was better in the mandible than in the maxilla; also recorded: Wound closure looked great with no gaps; also recorded: moderate gap at wound margin; also recorded: mild gap at the wound margin; also recorded: good wound approximation; also recorded: better healing on the left side than on the right; also recorded: slight gap at the wound margin; also recorded: rolled wound borders with slight gapping across
healing / closure at later post-op visit ([2]; three weeks to one month post-op, one patient per block): completely healed; also recorded: complete heal; also recorded: healing was complete; also recorded: things looked better; also recorded: perfectly closed wound; also recorded: implant was removed; also recorded: perfect tissue approximation; also recorded: perfect wound approximation; also recorded: excellent healing; also recorded: perfect closure; also recorded: good approximation; also recorded: all looked great; also recorded: complete closure; also recorded: good closure; also recorded: wound margin looked good; also recorded: wound margins were completely approximated; also recorded: excellent heal; also recorded: perfect heal on the left side
effect on apparent rhino mucosal passage inflammation [3]: favorably affect
